C[C@@H]1O[C@@H](OC[C@H]2O[C@@H](Oc3c(-c4ccc(OCCO)c(OCCO)c4)oc4cc(OCCO)cc(O)c4c3=O)[C@H](O)[C@@H](O)[C@@H]2O)[C@H](O)[C@H](O)[C@H]1O
solubility (mole fraction)
Settings | 288.15 K | 293.15 K | 298.15 K | 303.15 K | 308.15 K | 313.15 K | 318.15 K | 323.15 K
in 1,4-dioxane | 0.000517 | 0.000596 | 0.000724 | 0.000865 | 0.00103 | 0.00121 | 0.00144 | 0.00171
in acetone | 3.1e-05 | 3.4e-05 | 4.2e-05 | 5.5e-05 | 7e-05 | 9.1e-05 | 0.000124 | 0.000162
in acetonitrile | 8e-06 | 1.2e-05 | 1.5e-05 | 2.1e-05 | 2.8e-05 | 3.8e-05 | 4.9e-05 | 7e-05
in ethanol | 0.000228 | 0.000252 | 0.00029 | 0.000346 | 0.000407 | 0.000468 | 0.000547 | 0.000632
in isobutanol | 4.1e-05 | 5.4e-05 | 7e-05 | 9e-05 | 0.000125 | 0.000176 | 0.000238 | 0.000312
in isopropanol | 9.3e-05 | 0.000119 | 0.000161 | 0.000207 | 0.000268 | 0.000329 | 0.000403 | 0.000519
in methanol | 0.000245 | 0.000291 | 0.000362 | 0.00045 | 0.000573 | 0.000714 | 0.000876 | 0.00107
in n-butanol | 8e-05 | 0.000102 | 0.000142 | 0.000187 | 0.000248 | 0.000312 | 0.000382 | 0.000494
in n-pentanol | 7.1e-05 | 9e-05 | 0.000107 | 0.000132 | 0.00017 | 0.000222 | 0.000289 | 0.000377
in n-propanol | 0.000144 | 0.000177 | 0.000215 | 0.000258 | 0.000317 | 0.000377 | 0.000458 | 0.000562
in sec-butanol | 8.6e-05 | 0.000108 | 0.00015 | 0.000194 | 0.000254 | 0.000319 | 0.000391 | 0.000505

Reference: BigSolDB 2.1
